Results on seven compounds are retold here after paper PMC3479356 (ChemMedChem, 2012).

Each structure is given as a SMILES string. Where two headings read alike, the source gives them in different places.

The target of assay [1] is T1, recombinant human RXR receptor (Homo sapiens, UniProt P19793).
T1 sequence (P19793 1-462) 1: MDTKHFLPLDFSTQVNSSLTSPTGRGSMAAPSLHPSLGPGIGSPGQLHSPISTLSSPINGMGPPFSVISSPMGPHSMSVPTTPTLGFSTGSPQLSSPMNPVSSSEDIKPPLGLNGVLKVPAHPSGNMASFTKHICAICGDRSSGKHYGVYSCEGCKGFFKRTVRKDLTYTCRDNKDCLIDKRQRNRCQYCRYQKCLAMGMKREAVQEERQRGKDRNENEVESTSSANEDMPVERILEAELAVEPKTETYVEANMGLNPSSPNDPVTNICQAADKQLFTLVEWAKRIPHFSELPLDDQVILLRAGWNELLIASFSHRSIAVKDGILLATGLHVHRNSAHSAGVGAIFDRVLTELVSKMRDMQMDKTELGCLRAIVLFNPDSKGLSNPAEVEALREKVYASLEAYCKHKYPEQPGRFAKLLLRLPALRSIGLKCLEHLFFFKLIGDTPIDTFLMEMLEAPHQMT
T1 sequence (P19793 1-462) 2: T1 sequence (P19793 1-462) 1
The experiment in a line: RXR mammalian two-hybrid assay.

For the next assay, the target named is T2, human RXRα (Homo sapiens, UniProt P19793).
T2 sequence (P19793 1-462): T1 sequence (P19793 1-462) 1
The experiment in a line: RXRE-mediated transcription assay. In kind it is cell-based. Conditions: 10^−7 M, 24 h.

A further assay has as its system RXR. As to conditions: Caco-2 colon cancer cells; cited from earlier work.

For orientation: EC50 means the midpoint of the concentration-response curve. Regarding `C=C(c1ccc(C(=O)O)c(Cl)c1)c1cc2c(cc1C)C(C)(C)CCC2(C)C` [Analog 12, 2-Chloro-4-(1-(1,2,3,4-tetrahydro-1,1,4,4,6-pentamethylnaphthalen-7-yl)vinyl)benzoic acid], in assay [1], the EC50 was 90 nM.
Still for that read-out and setting: as for `C=C(c1ccc(C(=O)O)c(Br)c1)c1cc2c(cc1C)C(C)(C)CCC2(C)C` [Analog 14, 2-Bromo-4-(1-(1,2,3,4-tetrahydro-1,1,4,4,6-pentamethylnaphthalen-7-yl)vinyl)benzoic acid], the figure is 150 nM.
As to `C=C(c1ccc(C(=O)O)c(I)c1)c1cc2c(cc1C)C(C)(C)CCC2(C)C` [Analog 16, 2-Iodo-4-(1-(1,2,3,4-tetrahydro-1,1,4,4,6-pentamethylnaphthalen-7-yl)vinyl)benzoic acid], the EC50 in assay [1] amounted to 280 nM. In addition, the “RXR binding and homodimerization, % of the parent compound 1 efficiency” value in assay [1] (10^−7 M, 24 h, independent of the cell line (Caco-2 and HCT-116)) is given as approximately 20%.
With `C=C(c1cc(F)c(C(=O)O)c(F)c1)c1cc2c(cc1C)C(C)(C)CCC2(C)C` [Analog 18, 2,6-difluoro-4-(1-(1,2,3,4-tetrahydro-1,1,4,4,6-pentamethylnaphthalen-7-yl)vinyl)benzoic acid], at human RXRα (Caco-2 and HCT-116 cells), the “RXR homodimer-mediated transcription compared with ethanol vehicle” value is recorded as “significantly better than that of the ethanol vehicle”.
As for `Cc1cc2c(cc1C(=O)c1cc(F)c(C(=O)O)c(F)c1)C(C)(C)CCC2(C)C` [Analog 19, 2,6-Difluoro-4-(1-(3,5,5,8,8-pentamethyl-5,6,7,8-tetrahydronaphthalen-2-yl)carbonyl)benzoic acid], in assay [1] (read-out: EC50 value, transfected HCT-116 cells, full dose-response curves 10^−10 to 10^−5 M, ± S.D.), the EC50 amounted to 550 nM.
Turning to `C=C(c1ccc(C(=O)O)c(F)c1)c1cc2c(cc1C)C(C)(C)CCC2(C)C` [Compound 11, 2-fluoro-4-(1-(1,2,3,4-tetrahydro-1,1,4,4,6-pentamethylnaphthalen-7-yl)vinyl)benzoic acid], the “RXR activation compared with 1” value in the assay with RXR was “slightly higher RXR activation”.
As to `Cc1cc2c(cc1C(=O)c1ccc(C(=O)O)c(I)c1)C(C)(C)CCC2(C)C` [Compound 17, 2-Iodo-4-(1-(3,5,5,8,8-pentamethyl-5,6,7,8-tetrahydronaphthalen-2-yl)carbonyl)benzoic acid], the results for the “RXR homodimer-mediated transcription compared with ethanol vehicle” value on human RXRα (Caco-2 cells) and on human RXRα (HCT-116 cells) were “not able to activate transcription” and “significant activity”, respectively.
